Experimental data reported in patent US8372799B2, “Reverse protein” (Apeptico Forschung und Entwicklung GmbH, priority 2007, dated 2013).
Where a SMILES comes first, the peptide text is derived from it. Bridges are numbered along the chain shown (N, C = ends).

Target: T1, epithelial sodium channels (Homo sapiens, UniProt P37088+P51168+P51170)
T1 construct: endogenous in cells; host or cells: A549 human lung epithelial cells (ATCC CCL-185)
T1 sequence (P37088 1-669): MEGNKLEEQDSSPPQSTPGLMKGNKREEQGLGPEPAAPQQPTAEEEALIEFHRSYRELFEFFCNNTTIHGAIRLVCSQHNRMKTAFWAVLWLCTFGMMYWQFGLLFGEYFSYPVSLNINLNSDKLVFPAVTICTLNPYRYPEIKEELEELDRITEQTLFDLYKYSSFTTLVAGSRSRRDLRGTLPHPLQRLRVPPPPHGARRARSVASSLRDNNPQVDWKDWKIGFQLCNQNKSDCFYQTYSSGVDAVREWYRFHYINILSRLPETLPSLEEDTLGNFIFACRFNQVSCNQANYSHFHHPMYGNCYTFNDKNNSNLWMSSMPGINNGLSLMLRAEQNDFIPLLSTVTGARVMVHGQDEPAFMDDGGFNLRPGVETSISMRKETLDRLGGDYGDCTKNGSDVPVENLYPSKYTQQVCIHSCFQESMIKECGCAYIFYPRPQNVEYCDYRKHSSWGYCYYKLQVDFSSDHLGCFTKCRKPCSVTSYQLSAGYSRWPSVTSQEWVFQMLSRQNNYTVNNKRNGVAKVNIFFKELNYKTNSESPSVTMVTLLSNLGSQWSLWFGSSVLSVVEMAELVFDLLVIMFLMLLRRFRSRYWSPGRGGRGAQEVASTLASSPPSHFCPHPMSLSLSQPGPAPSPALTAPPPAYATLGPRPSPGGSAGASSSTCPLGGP
T1 sequence (P51168 1-640): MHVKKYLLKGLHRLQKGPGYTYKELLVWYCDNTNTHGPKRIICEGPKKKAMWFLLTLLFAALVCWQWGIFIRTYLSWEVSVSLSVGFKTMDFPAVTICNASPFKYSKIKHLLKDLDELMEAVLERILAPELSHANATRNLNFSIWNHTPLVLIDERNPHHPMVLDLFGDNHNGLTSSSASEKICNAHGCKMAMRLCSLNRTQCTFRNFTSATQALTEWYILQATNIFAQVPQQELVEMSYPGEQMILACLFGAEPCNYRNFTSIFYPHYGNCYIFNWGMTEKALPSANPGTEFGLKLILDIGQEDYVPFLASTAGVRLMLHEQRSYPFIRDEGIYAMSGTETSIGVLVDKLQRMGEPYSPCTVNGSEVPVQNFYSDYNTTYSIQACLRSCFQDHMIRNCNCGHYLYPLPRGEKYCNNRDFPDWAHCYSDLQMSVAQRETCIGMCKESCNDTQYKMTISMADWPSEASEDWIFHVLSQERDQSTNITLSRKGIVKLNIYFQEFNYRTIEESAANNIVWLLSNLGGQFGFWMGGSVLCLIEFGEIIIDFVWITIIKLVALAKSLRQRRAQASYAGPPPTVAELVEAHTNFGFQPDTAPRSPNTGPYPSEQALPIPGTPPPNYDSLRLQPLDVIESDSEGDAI
T1 sequence (P51170 1-649): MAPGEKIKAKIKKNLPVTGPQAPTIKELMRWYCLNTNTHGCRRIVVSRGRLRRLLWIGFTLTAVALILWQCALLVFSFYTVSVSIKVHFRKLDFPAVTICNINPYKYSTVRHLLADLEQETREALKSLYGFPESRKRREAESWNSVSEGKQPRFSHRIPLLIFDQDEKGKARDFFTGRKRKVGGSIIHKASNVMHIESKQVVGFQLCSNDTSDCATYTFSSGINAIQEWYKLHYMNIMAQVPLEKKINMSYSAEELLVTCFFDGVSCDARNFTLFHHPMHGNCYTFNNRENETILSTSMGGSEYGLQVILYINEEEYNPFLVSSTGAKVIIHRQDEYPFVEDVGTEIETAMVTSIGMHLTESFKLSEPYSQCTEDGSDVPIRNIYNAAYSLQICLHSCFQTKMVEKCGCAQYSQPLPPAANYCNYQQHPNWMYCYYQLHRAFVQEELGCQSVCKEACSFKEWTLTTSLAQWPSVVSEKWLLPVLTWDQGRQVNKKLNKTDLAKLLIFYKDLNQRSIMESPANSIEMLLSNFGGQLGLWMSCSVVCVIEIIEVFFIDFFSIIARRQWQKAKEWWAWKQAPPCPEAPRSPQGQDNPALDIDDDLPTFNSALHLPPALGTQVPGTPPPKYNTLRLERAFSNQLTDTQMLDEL
Assay: Patch-clamp activation of sodium ion channels in A549 cells
Type: cell-based
Settings: whole cell / cell-attached, amiloride-sensitive sodium current
Excerpt: Furthermore, a method common in laboratories is to detect the activation of ion channels by means of patch-clamp experiments, and this is described, for example, in Clunes M. T. et al, J Physiol Volume 557, No. 3, 809-819 (Jun. 15, 2004). For patch-clamp examinations of ion channels, a glass cannula is stretched thin and filled with a neutral buffer solution. The glass cannula (patch-clamp pipette) is carefully pressed onto an intact epithelial cell. A piece of membrane is located below the pipette. An electrical resistance is thereby produced between the interior of the pipette and the external solution. An electrode attached to a sensitive amplifier dips into the pipette solution.
The electrophysiological experiments were performed on human A549 cells (ATTC No. CCL-185). A549 cells are human lung epithelial cells which are involved in the diffusion of water and electrolytes in the lungs.
The cells were suspended in DMEM-F-12 medium with 1% penicillin-streptomycin and 10% fetal calf serum, transferred into plastic cell culture vessels and cultivated in the incubator with 95% air and 5% CO2 at 37° C. The medium was changed 2 to 3 times per week. The cells double within approx. 22 hours and a cell concentration of more than 7×10^4 cells per cm^2 was not exceeded.
Macroscopic currents and single-channel currents were discharged from A549 cells in the “whole cell” and “cell-attached” configuration of the “patch-clamp” technique (Hamill et al, Pflugers Arch. 1981, 391(2):85-100, 1981). For the current dissipations in the “whole cell” configuration, the following bath and electrode solutions were used:
Bath solution: 135 mM sodium methane sulfonate, 10 mM NaCl, 2.7 mM KCl, 1.8 mM CaCl2, 2 mM MgCl2, 5.5 mM glucose, and 10 mM HEPES, pH 7.4. […]
The cover slips with the cells cultivated thereon were transferred into a test bath with a capacity of 1 ml, fixed on the microscope table (Axiovert 100, 400-fold magnification), and the cells were superfused with the above-described bath solution. […] In the “cell-attached” configuration, the current can be measured through individual ion channels beneath the electrode tip. In the “whole cell” configuration, the membrane was penetrated beneath the electrode tip so that the current flowing through all ion channels of the cell could be measured. […] Upon obtaining a Gigaohm seal, a defined membrane retaining potential was applied via a pre-amplifier (CV-4 Headstage, Axon Instruments) and an amplifier (Axopatch 1D, Axon Instr.) and the current thereby flowing through the ion channels was measured.
The pulse protocol consisted of a hyperpolarization to −100 mV for 1 s at an interval of 5 s. […] The current dissipations thus obtained were stored and analyzed by means of the program PCLAMP 6.0. […]

For CC[C@H](C)[C@H](NC(=O)[C@H](C)N)C(=O)N[C@@H](CCCCN)C(=O)N[C@@H](CO)C(=O)N1CCC[C@H]1C(=O)N[C@H]1CSSC[C@@H](C(=O)N2CCC[C@H]2C(=O)N[C@@H](CO)C(=O)N[C@H](C(=O)N[C@@H](Cc2c[nH]cn2)C(=O)N[C@H](C(=O)O)C(C)C)[C@@H](C)O)NC(=O)CNC(=O)CNC(=O)[C@H](CCCCN)NC(=O)[C@H](C)NC(=O)[C@H](CCC(=O)O)NC(=O)[C@H](C)NC(=O)CNC(=O)[C@H](CCC(=O)O)NC(=O)[C@@H]2CCCN2C(=O)[C@H]([C@@H](C)O)NC(=O)[C@H](CCC(=O)O)NC(=O)[C@H](CCCNC(=N)N)NC(=O)[C@H](CCC(N)=O)NC1=O [SEQ ID NO:1] (H-AIKSPCQRETPEGAEAKGGCPSTHV-OH; disulfide 6-20), which “activation of the sodium ion channels (patch clamp)” value (shortened to “activation”) is on record?
Its value is “activation of the sodium ion channels”.

How did the “activation” value turn out when C[C@@H]1NC(=O)CNC(=O)[C@H](CCC(=O)O)NC(=O)[C@@H]2CCCN2C(=O)[C@H]([C@@H](C)O)NC(=O)[C@H](CCC(=O)O)NC(=O)[C@H](CCCNC(=N)N)NC(=O)[C@H](CCC(N)=O)NC(=O)[C@@H](NC(=O)[C@@H]2CCCN2C(=O)[C@H](CO)NC(=O)[C@@H](N)CCCCN)CSSC[C@@H](C(=O)N2CCC[C@H]2C(=O)N[C@@H](CO)C(=O)O)NC(=O)CNC(=O)CNC(=O)[C@H](CCCCN)NC(=O)[C@H](C)NC(=O)[C@H](CCC(=O)O)NC1=O [SEQ ID NO:2] (H-KSPCQRETPEGAEAKGGCPS-OH; disulfide 4-18) was run?
Its value is “activation of the sodium ion channels”.

Which “activation” value does the source give for C[C@@H]1NC(=O)CNC(=O)[C@H](CCC(=O)O)NC(=O)[C@@H]2CCCN2C(=O)[C@H]([C@@H](C)O)NC(=O)[C@H](CCC(=O)O)NC(=O)[C@H](CCCNC(=N)N)NC(=O)[C@H](CCC(N)=O)NC(=O)[C@@H](N)CSSC[C@@H](C(=O)O)NC(=O)CNC(=O)CNC(=O)[C@H](CCCCN)NC(=O)[C@H](C)NC(=O)[C@H](CCC(=O)O)NC1=O [SEQ ID NO:3, (NH2)Cys-Gln-Arg-Glu-Thr-Pro-Glu-Gly-Ala-Glu-Ala-Lys-Gly-Gly-Cys(COOH)] (H-CQRETPEGAEAKGGC-OH; disulfide 1-15) here?
The value was “activation of the sodium ion channels”.
